Laboratory results published in US20150105252A1, “SUBSTITUTED PYRAZOLES AS HERBICIDES” (E I DU PONT DE NEMOURS AND COMPANY, priority 2013, published 2015).

Key:
[1] = tested on: pigweed; assay: Test A postemergence; format: in vivo, Amaranthus retroflexus
How it was run: (§1)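 After sowing in a sand–loam mix, pots received compound preemergence by directed soil spray, or postemergence once plants reached the one- to two-leaf stage (2–10 cm). Formulation contained surfactant in a non-phytotoxic solvent. Injury was scored visually after ~10 greenhouse days, 0–100 scale.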

[2] = tested on: galium; assay: Test C preemergence; format: in vivo, Galium aparine; conditions: for Galium plant response rating / Plant response rating, Galium: preemergence; for Plant response rating, Galium: 125 g ai/ha, scale 0 to 100, 0 = no effect, 100 = complete control
How it was run: (§2)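 Greenhouse pot test: preemergence application onto freshly seeded loam/sand mix, postemergence application onto seedlings (1–4 leaves, 2–18 cm) in peat-vermiculite substrate. Responses scored visually 13 to 15 days later relative to controls, where 0 means no effect and 100 means complete control; a dash indicates no result.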

[3] = tested on: corn; assay: Test C preemergence; format: in vivo, Zea mays; conditions: for Corn plant response rating / Plant response rating, Corn: preemergence; for Plant response rating, Corn: scale 0 to 100, 0 = no effect, 100 = complete control
How it was run: as §2

[4] = tested on: blackgrass; assay: Test C postemergence; format: in vivo, Alopecurus myosuroides; conditions: for Plant response rating (scale of 0 to 100 where 0 is no effect and 100 is complete control), Blackgrass: Postemergence, 31 g ai/ha, visually evaluated after 13 to 15 days; for Blackgrass plant response rating / Plant response rating, Blackgrass: postemergence; for Blackgrass plant response rating: 62 g ai/ha, scale 0 to 100
How it was run: as §2

[5] = tested on: ragweed; assay: Test C preemergence; format: in vivo, Ambrosia elation; conditions: for Ragweed plant response rating / Plant response rating, Ragweed: preemergence; for Plant response rating, Ragweed: scale 0 to 100, 0 = no effect, 100 = complete control
How it was run: as §2

[6] = tested on: nutsedge, yellow; assay: Test C postemergence; format: in vivo, Cyperus esculentus; conditions: for Plant response rating (scale of 0 to 100 where 0 is no effect and 100 is complete control), Nutsedge, Yellow: Postemergence, 31 g ai/ha, visually evaluated after 13 to 15 days; for Nutsedge, Yellow plant response rating / Plant response rating, Nutsedge, Yellow: postemergence; for Nutsedge, Yellow plant response rating: 62 g ai/ha, scale 0 to 100
How it was run: as §2

[7] = tested on: crabgrass, large; assay: Test A preemergence; format: in vivo, Digitaria sanguinalis; conditions: preemergence; for Crabgrass, Large plant response rating (0 to 100 scale): visual injury approx. 10 days after treatment
How it was run: as §1

[8] = tested on: ragweed; assay: Test C postemergence; format: in vivo, Ambrosia elation
How it was run: as §2

[9] = tested on: foxtail, giant; assay: Test A preemergence; format: in vivo, Setaria faberii; conditions: preemergence; for Foxtail, Giant plant response rating (0 to 100 scale): visual injury approx. 10 days after treatment
How it was run: as §1

[10] = tested on: pigweed; assay: Test C postemergence; format: in vivo, Amaranthus retroflexus; conditions: for Pigweed plant response rating / Plant response rating, Pigweed: postemergence; for Pigweed plant response rating: 62 g ai/ha, scale 0 to 100
How it was run: as §2

[11] = tested on: wheat; assay: Test A preemergence; format: in vivo, Triticum aestivum; conditions: preemergence; for Wheat plant response rating (0 to 100 scale): visual injury approx. 10 days after treatment
How it was run: as §1

[12] = tested on: rice; assay: Test B flood; format: in vivo, Oryza sativa; conditions: 250 g ai/ha, visual rating on 0 to 100 scale (0 no effect, 100 complete control), 13 to 15 days
How it was run: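 Plants were grown to the 2-leaf stage and pots flooded to 3 cm above soil. Compounds were applied directly into the paddy water, with depth kept for the test. After 13–15 days in greenhouse, response was rated visually against controls on a 0 (no effect) to 100 (complete control) scale.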

[13] = tested on: corn; assay: Test A postemergence; format: in vivo, Zea mays
How it was run: as §1

[14] = tested on: velvetleaf; assay: Test A preemergence; format: in vivo, Abutilon theophrasti; conditions: preemergence; for Velvetleaf plant response rating (0 to 100 scale): visual injury approx. 10 days after treatment
How it was run: as §1

[15] = Postemergence, 500 g ai/ha, visual rating after approx. 10 days, 0 to 100 scale (0 no effect, 100 complete control)
[16] = postemergence, 125 g ai/ha, about 10 days, visual rating on 0 to 100 scale (0 no effect, 100 complete control)
[17] = 31 g ai/ha, visual rating, scale 0 to 100 (0 no effect, 100 complete control), 13 to 15 days
[18] = 62 g ai/ha, scale 0 to 100 (0 no effect, 100 complete control), 13 to 15 days
[19] = 125 g ai/ha, scale 0 to 100, 0 is no effect, 100 is complete control
[20] = 250 g ai/ha, scale 0 to 100 (0 no effect, 100 complete control)
[21] = 125 g ai/ha, scale 0 to 100, 0 no effect, 100 complete control
[22] = 125 g ai/ha, visual injury, 0 to 100 scale, approx. 10 days
[23] = 500 g ai/ha, visual injury after approx. 10 days, 0 to 100 scale (0 no effect, 100 complete control)
[24] = Postemergence, 31 g ai/ha, visually evaluated after 13 to 15 days
[25] = postemergence, 250 g ai/ha, scale 0 to 100 (0 no effect, 100 complete control)
[26] = postemergence, 125 g ai/ha, scale 0 to 100, 0 no effect, 100 complete control
[27] = Postemergence, 500 g ai/ha, 0 to 100 scale (0 no effect, 100 complete control)
[28] = 250 g ai/ha, scale 0 to 100, 0 is no effect, 100 is complete control

| Structure (SMILES) | Galium plant response rating [2, 17] | Galium plant response rating [2, 18] | Corn plant response rating [3, 17] | Corn plant response rating [3, 18] | Plant response rating (scale of 0 to 100 where 0 is no effect and 100 is complete control), Blackgrass [4] | Blackgrass plant response rating [4] | Plant response rating, Blackgrass [4, 20] | Plant response rating, Blackgrass [4, 21] | Ragweed plant response rating [5, 17] | Ragweed plant response rating [5, 18] | Plant response rating (scale of 0 to 100 where 0 is no effect and 100 is complete control), Nutsedge, Yellow [6] | Nutsedge, Yellow plant response rating [6] | Plant response rating, Nutsedge, Yellow [6, 20] | Plant response rating, Nutsedge, Yellow [6, 21] | Crabgrass, Large plant response rating [7, 23] | Plant response rating, Ragweed [8, 25] | Plant response rating, Ragweed [8, 26] | Foxtail, Giant plant response rating [9, 23] | Pigweed plant response rating [10] | Plant response rating, Pigweed [10, 20] | further results |
| --- | --- | --- | --- | --- | --- | --- | --- | --- | --- | --- | --- | --- | --- | --- | --- | --- | --- | --- | --- | --- | --- |
| CCc1cc(-c2ccc(C(F)(F)F)cc2)nn1Cc1ccnc(C(F)(F)F)c1 [Compound 110] | 50 | 90 | 5 | 5 | 30 | 35 | 60 | 45 | 35 | 35 | 5 | 10 | 10 | 10 | 100 | 80 | 80 | 100 | 85 | 98 | Pigweed plant response rating [1, 15]: 100; Pigweed plant response rating [1, 16]: 100; Plant response rating (scale of 0 to 100), Galium ([2]; Preemergence, 250 g ai/ha): 100; Plant response rating (scale of 0 to 100), Corn ([3]; Preemergence, 250 g ai/ha): 10; Corn plant response rating [3, 19]: 5; Plant response rating (scale of 0 to 100), Ragweed ([5]; Preemergence, 250 g ai/ha): 75; Ragweed plant response rating [5, 19]: 60; Crabgrass, Large plant response rating [7, 22]: 100; Plant response rating (scale of 0 to 100 where 0 is no effect and 100 is complete control), Ragweed [8, 24]: 50; Ragweed plant response rating ([8]; postemergence, 62 g ai/ha, scale 0 to 100): 80; Foxtail, Giant plant response rating [9, 22]: 100; Plant response rating (scale of 0 to 100 where 0 is no effect and 100 is complete control), Pigweed [10, 24]: 85; Plant response rating, Pigweed [10, 21]: 90; Wheat plant response rating [11, 22]: 80; Wheat plant response rating [11, 23]: 100; Plant response rating, Rice [12]: 35; Corn plant response rating [13, 15]: 90; Corn plant response rating [13, 16]: 80; Velvetleaf plant response rating [14, 22]: 90; Velvetleaf plant response rating [14, 23]: 100 |
| CCCc1cc(C(=O)NC(C)C)nn1Cc1ccnc(C(F)(F)F)c1 [Compound 186] | 50 | 100 | 55 | 85 | 5 | 10 | 60 | 10 | 75 | 100 | 5 | 5 | 15 | 5 | 100 | 70 | 55 | 100 | 70 | 85 | Pigweed plant response rating ([1]; Postemergence, 125 g ai/ha, 0 to 100 scale, 0 no effect, 100 complete control): 60; Pigweed plant response rating [1, 27]: 100; Plant response rating, Galium ([2]; 13 to 15 days): 100; Galium plant response rating [2, 28]: 95; Plant response rating, Corn ([3]; 125 g ai/ha, 13 to 15 days): 95; Corn plant response rating [3, 28]: 98; Plant response rating, Ragweed ([5]; 125 g ai/ha, 13 to 15 days): 95; Ragweed plant response rating [5, 28]: 98; Crabgrass, Large plant response rating (0 to 100 scale) ([7]; 125 g ai/ha): 100; Foxtail, Giant plant response rating (0 to 100 scale) ([9]; 125 g ai/ha): 100; Plant response rating, Pigweed [10, 21]: 85; Wheat plant response rating (0 to 100 scale) ([11]; 125 g ai/ha): 90; Wheat plant response rating [11, 23]: 100; Plant response rating, Rice [12]: 75; Corn plant response rating [13, 27]: 100; Corn plant response rating [13, 16]: 100; Velvetleaf plant response rating (0 to 100 scale) ([14]; 125 g ai/ha): 100; Velvetleaf plant response rating [14, 23]: 100 |
| CCOc1cc(C(=O)NOC(C)C)nn1Cc1ccnc(C(F)(F)F)c1 [Compound 153] | 30 | 100 | 10 | 50 | 0 | 5 | 5 | 5 | 50 | 95 | 5 | 5 | 15 | 20 | 100 | 85 | 40 | 100 | 25 | 80 | Pigweed plant response rating [1, 27]: 100; Pigweed plant response rating [1, 16]: 100; Plant response rating, Galium ([2]; 13 to 15 days): 100; Galium plant response rating [2, 28]: 100; Plant response rating, Corn ([3]; 125 g ai/ha, 13 to 15 days): 95; Corn plant response rating [3, 28]: 98; Plant response rating, Ragweed ([5]; 125 g ai/ha, 13 to 15 days): 98; Ragweed plant response rating [5, 28]: 98; Crabgrass, Large plant response rating (0 to 100 scale) ([7]; 125 g ai/ha): 100; Foxtail, Giant plant response rating (0 to 100 scale) ([9]; 125 g ai/ha): 100; Plant response rating, Pigweed [10, 21]: 25; Wheat plant response rating (0 to 100 scale) ([11]; 125 g ai/ha): 100; Wheat plant response rating [11, 23]: 100; Plant response rating, Rice [12]: 40; Corn plant response rating [13, 27]: 100; Corn plant response rating [13, 16]: 90; Velvetleaf plant response rating (0 to 100 scale) ([14]; 125 g ai/ha): 90; Velvetleaf plant response rating [14, 23]: 100 |
